Measured values: PubChem BioAssay AID256 (DTP/NCI, 2004)
Inconclusive results and toxic doses are left out. Rule for the calls: active = survival T/C of 150% or more; inactive = T/C below 125% in these data.

System: CD2F1 mice, L1210 leukemia ip, survival T/C
Assay: NCI In Vivo Anticancer Drug Screen. Data for tumor model L1210 Leukemia (intraperitoneal) in CD2F1 (CDF1) mice
Details: higher = longer survival
In short: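 Activity against a transplanted murine tumor was judged by comparing the compound group with a vehicle group. The outcome in the treated animals was divided by that in the controls.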

[1] = endpoint: mean survival time, dose: 100.0 mg/kg/injection, schedule: Q04DX003 (ip), vehicle: saline with Tween-80
[2] = endpoint: mean survival time, dose: 200.0 mg/kg/injection, schedule: Q04DX003 (ip), vehicle: saline with Tween-80
[3] = endpoint: mean survival time, dose: 400.0 mg/kg/injection, schedule: Q04DX003 (ip), vehicle: saline with Tween-80
[4] = endpoint: mean survival time, dose: 100.0 mg/kg/injection, schedule: Q04DX002 (ip), vehicle: saline with Tween-80
[5] = endpoint: mean survival time, dose: 200.0 mg/kg/injection, schedule: Q04DX002 (ip), vehicle: saline with Tween-80
[6] = endpoint: mean survival time, dose: 400.0 mg/kg/injection, schedule: Q04DX002 (ip), vehicle: saline with Tween-80

Measured: T/C

Cc1ccc(CC(=O)O)cc1C
inactive: [1] 98 % of control | [2] 95 % of control | [3] 98 % of control

CC1(C)OCC2OC=CC(=O)C2O1 (configuration not stated)
inactive: endpoint: median survival time, dose: 25.0 mg/kg/injection, schedule: Q01DX009 (ip), vehicle: suspension in saline 94 % of control | endpoint: median survival time, dose: 50.0 mg/kg/injection, schedule: Q01DX009 (ip), vehicle: suspension in saline 103 % of control | endpoint: median survival time, dose: 100.0 mg/kg/injection, schedule: Q01DX009 (ip), vehicle: suspension in saline 101 % of control | endpoint: median survival time, dose: 200.0 mg/kg/injection, schedule: Q01DX009 (ip), vehicle: suspension in saline 97 % of control | endpoint: median survival time, dose: 400.0 mg/kg/injection, schedule: Q01DX009 (ip), vehicle: suspension in saline 104 % of control

CC12CCC(=O)C=C1CCC1C2CCC2(C)C(C(=O)Cn3c(=O)cc[nH]c3=O)CCC12 (configuration not stated)
inactive: endpoint: mean survival time, dose: 12.5 mg/kg/injection, schedule: Q04DX003 (ip), vehicle: Klucel (hydroxypropylcellulose) (HPC) 91 % of control | endpoint: mean survival time, dose: 25.0 mg/kg/injection, schedule: Q04DX003 (ip), vehicle: Klucel (hydroxypropylcellulose) (HPC) 97 % of control | endpoint: mean survival time, dose: 50.0 mg/kg/injection, schedule: Q04DX003 (ip), vehicle: Klucel (hydroxypropylcellulose) (HPC) 91 % of control | endpoint: mean survival time, dose: 100.0 mg/kg/injection, schedule: Q04DX003 (ip), vehicle: Klucel (hydroxypropylcellulose) (HPC) 95 % of control | endpoint: mean survival time, dose: 200.0 mg/kg/injection, schedule: Q04DX003 (ip), vehicle: Klucel (hydroxypropylcellulose) (HPC) 103 % of control

Cn1c(=O)c2[nH]c(-c3ccc(Cl)cc3)nc2n(C)c1=O
inactive: endpoint: mean survival time, dose: 12.5 mg/kg/injection, schedule: Q01DX005 (ip), vehicle: other 89 % of control | endpoint: mean survival time, dose: 25.0 mg/kg/injection, schedule: Q01DX005 (ip), vehicle: other 89 % of control | endpoint: mean survival time, dose: 50.0 mg/kg/injection, schedule: Q01DX005 (ip), vehicle: other 93 % of control | endpoint: mean survival time, dose: 100.0 mg/kg/injection, schedule: Q01DX005 (ip), vehicle: other 89 % of control | endpoint: mean survival time, dose: 200.0 mg/kg/injection, schedule: Q01DX005 (ip), vehicle: other 95 % of control

O=NNc1ccc(Cl)cn1
inactive: endpoint: median survival time, dose: 1.5 mg/kg/injection, schedule: Q01DX009 (ip), vehicle: water 110 % of control | endpoint: median survival time, dose: 1.56 mg/kg/injection, schedule: Q01DX009 (ip), vehicle: water 104 % of control | endpoint: median survival time, dose: 3.0 mg/kg/injection, schedule: Q01DX009 (ip), vehicle: water 114 % of control | endpoint: median survival time, dose: 3.12 mg/kg/injection, schedule: Q01DX009 (ip), vehicle: water 117 % of control | endpoint: median survival time, dose: 6.0 mg/kg/injection, schedule: Q01DX009 (ip), vehicle: water 119 % of control | endpoint: median survival time, dose: 12.5 mg/kg/injection, schedule: Q01DX009 (ip), vehicle: water 104 % of control | endpoint: median survival time, dose: 24.0 mg/kg/injection, schedule: Q01DX009 (ip), vehicle: water 107 % of control

NC(=O)c1nc(Br)n(C2OC(CO)C(O)C2O)c1N (configuration not stated)
inactive: endpoint: median survival time, dose: 44.0 mg/kg/injection, schedule: Q01DX005 (ip), vehicle: saline 104 % of control | endpoint: median survival time, dose: 88.0 mg/kg/injection, schedule: Q01DX005 (ip), vehicle: saline 101 % of control | endpoint: median survival time, dose: 175.9 mg/kg/injection, schedule: Q01DX005 (ip), vehicle: saline 102 % of control

CCCCC1CCC(N)CC1 (configuration not stated)
inactive: endpoint: mean survival time, dose: 100.0 mg/kg/injection, schedule: Q04DX003 (ip), vehicle: saline 96 % of control

Cc1ccc(NCC2(/N=C/c3ccccc3)OC(CO)C(O)C2O)cc1 (configuration not stated)
inactive: endpoint: mean survival time, dose: 100.0 mg/kg/injection, schedule: Q01DX009 (ip), vehicle: Klucel (hydroxypropylcellulose) (HPC) 109 % of control | endpoint: mean survival time, dose: 177.0 mg/kg/injection, schedule: Q01DX009 (ip), vehicle: saline with Tween-80 113 % of control | endpoint: mean survival time, dose: 200.0 mg/kg/injection, schedule: Q01DX009 (ip), vehicle: Klucel (hydroxypropylcellulose) (HPC) 118 % of control | endpoint: mean survival time, dose: 266.0 mg/kg/injection, schedule: Q01DX009 (ip), vehicle: Klucel (hydroxypropylcellulose) (HPC) 120 % of control

O=C(O)c1ccccc1.[Cu+2]
inactive: endpoint: mean survival time, dose: 5.0 mg/kg/injection, schedule: Q01DX001 (ip), vehicle: saline 96 % of control | endpoint: mean survival time, dose: 10.0 mg/kg/injection, schedule: Q01DX001 (ip), vehicle: saline 91 % of control | endpoint: mean survival time, dose: 20.0 mg/kg/injection, schedule: Q01DX001 (ip), vehicle: saline 107 % of control | endpoint: mean survival time, dose: 40.0 mg/kg/injection, schedule: Q01DX001 (ip), vehicle: saline 102 % of control | endpoint: mean survival time, dose: 80.0 mg/kg/injection, schedule: Q01DX001 (ip), vehicle: saline 107 % of control

[Cl][Cr][Cl].[NH-]CC[NH-].[NH-]CC[NH-]
inactive: endpoint: mean survival time, dose: 100.0 mg/kg/injection, schedule: Q04DX002 (ip), vehicle: saline 95 % of control | endpoint: mean survival time, dose: 200.0 mg/kg/injection, schedule: Q04DX002 (ip), vehicle: saline 95 % of control | endpoint: mean survival time, dose: 400.0 mg/kg/injection, schedule: Q04DX002 (ip), vehicle: saline 88 % of control

Cc1cc(NC(=O)Nc2ccc(Cl)cc2)no1
inactive: endpoint: mean survival time, dose: 50.0 mg/kg/injection, schedule: Q01DX009 (ip), vehicle: saline sonified 96 % of control | endpoint: mean survival time, dose: 100.0 mg/kg/injection, schedule: Q01DX009 (ip), vehicle: saline sonified 96 % of control | endpoint: mean survival time, dose: 200.0 mg/kg/injection, schedule: Q01DX009 (ip), vehicle: saline sonified 96 % of control

O=c1oc2ccccc2c(O)c1-c1cccc2ccccc12
inactive: endpoint: mean survival time, dose: 12.5 mg/kg/injection, schedule: Q01DX009 (ip), vehicle: saline with Tween-80 91 % of control | endpoint: mean survival time, dose: 25.0 mg/kg/injection, schedule: Q01DX009 (ip), vehicle: saline with Tween-80 103 % of control | endpoint: mean survival time, dose: 50.0 mg/kg/injection, schedule: Q01DX009 (ip), vehicle: saline with Tween-80 100 % of control

O=C(NCCCCCCCCCCNC(=O)Nc1ccc(C2=NCCCN2)cc1)Nc1ccc(C2=NCCCN2)cc1
inactive: endpoint: mean survival time, dose: 5.0 mg/kg/injection, schedule: Q01DX009 (ip), vehicle: saline 103 % of control | endpoint: mean survival time, dose: 8.0 mg/kg/injection, schedule: Q01DX009 (ip), vehicle: saline 117 % of control | endpoint: mean survival time, dose: 19.0 mg/kg/injection, schedule: Q01DX009 (ip), vehicle: saline 121 % of control

CCCCCCCCCCCCCCCCOCCOCCOCCOCCOCCCCCCCCCCCCCCCC
inactive: [4] 94 % of control | [5] 94 % of control | [6] 98 % of control

CCCC(CC(=O)O)(C(=O)O)c1ccccc1 (configuration not stated)
inactive: endpoint: mean survival time, dose: 100.0 mg/kg/injection, schedule: Q01DX009 (ip), vehicle: other 108 % of control | endpoint: mean survival time, dose: 100.0 mg/kg/injection, schedule: Q04DX003 (ip), vehicle: other 93 % of control | endpoint: mean survival time, dose: 200.0 mg/kg/injection, schedule: Q01DX009 (ip), vehicle: other 91 % of control | endpoint: mean survival time, dose: 200.0 mg/kg/injection, schedule: Q04DX003 (ip), vehicle: other 97 % of control | endpoint: mean survival time, dose: 400.0 mg/kg/injection, schedule: Q01DX009 (ip), vehicle: other 91 % of control | endpoint: mean survival time, dose: 400.0 mg/kg/injection, schedule: Q04DX003 (ip), vehicle: other 98 % of control

Cc1cc(C)c(/C=N/NC(=O)NN)c(C)c1
inactive: [1] 91 % of control | [2] 96 % of control | [3] 88 % of control

CC1(C)OCC(C2OC(On3nnc4ccc(Cl)cc43)C3OC(C)(C)OC23)O1 (configuration not stated)
inactive: endpoint: mean survival time, dose: 12.5 mg/kg/injection, schedule: Q01DX005 (ip), vehicle: distilled water + Tween-80 98 % of control | endpoint: mean survival time, dose: 25.0 mg/kg/injection, schedule: Q01DX005 (ip), vehicle: distilled water + Tween-80 96 % of control | endpoint: mean survival time, dose: 50.0 mg/kg/injection, schedule: Q01DX005 (ip), vehicle: distilled water + Tween-80 105 % of control | endpoint: mean survival time, dose: 100.0 mg/kg/injection, schedule: Q01DX005 (ip), vehicle: distilled water + Tween-80 96 % of control | endpoint: mean survival time, dose: 200.0 mg/kg/injection, schedule: Q01DX005 (ip), vehicle: distilled water + Tween-80 105 % of control

Cc1cc(S(=O)(=O)F)cc(Cl)c1SC(=O)N(C)C
inactive: [4] 91 % of control | [5] 95 % of control | [6] 91 % of control

NC(=O)N/N=C1/CCCC2CCCCC12 (configuration not stated)
inactive: endpoint: mean survival time, dose: 150.0 mg/kg/injection, schedule: Q04DX003 (ip), vehicle: saline with Tween-80 93 % of control | endpoint: mean survival time, dose: 300.0 mg/kg/injection, schedule: Q04DX003 (ip), vehicle: saline with Tween-80 89 % of control
